Measured values: US20190099414A1, “THERAPEUTIC COMPOSITIONS AND METHODS” (UNIVERSITY OF IOWA RESEARCH FOUNDATION, priority 2015, published 2019)

How the values were obtained:
[1] = Raman spectroscopy and differential scanning calorimetry of drug-loaded particles; assay type: physicochemical; conditions: Raman shifts and DSC melting point unchanged after loading
Method: Confocal Raman spectroscopy was used to characterize the distribution of blebbistatin in the PLGA nanoparticles. Spectra of pure blebbistatin, pure PLGA, blank nanoparticles, and blebbistatin loaded nanoparticles were produced with the 488 nm line of an Ar+ laser (Coherent, Inova 70, 30 mW). After autoalignment of the instrument, the laser beam was focused on the samples using an inverted optical microscope equipped with a 50× objective lens. Spectra were recorded between 80 cm^−1 to 1300 cm^−1 at high resolution. Spectra were spatially resolved at each pixel by passing the backscattered image of the Ar+ laser through a pinhole of diameter 100 μm onto a cooled CCD camera.
Differential scanning calorimetry was employed to analyze the solid state and thermal properties of the nanoparticles. Approximately 2 mg of either lyophilized blank PLGA nanoparticles or drug-loaded PLGA nanoparticles were weighed and hermetically sealed into aluminum pans. An empty aluminum pan was used as a reference. Sample were heated from 25° C. to 300° C. at a rate of 10° C./min under a stream of nitrogen gas flow to produce thermograms for extracting the transition temperature (Tc) and enthalpy of transition (AH).

Rho/ROCK pathway = test: Real time PCR analysis of Rho/ROCK pathway gene expression; assay type: cell-based; conditions: rabbit joint capsule fibroblasts in collagen gels; 50 μg/mL blebbistatin; 0, 5, 24 and 48 hours; versus blank PLGA particle control
Method: Inhibition of Rho/ROCK pathway in RJCFs by blebbistatin nanoparticle was studied using quantitative real-time PCR (qPCR) Two groups of collagen gels were prepared in the same way as described in the collagen gel compaction assay. One group of gels (n=3) was treated with 2.5 mg of blebbistatin nanoparticles dispersed in 50 μL of DMEM so that the final concentration of blebbistatin was 50 μg/mL. The other control group gels (n=3) were also treated in the same way but instead with blank PLGA particles. Measurements were made at four terminal time points of 0, 5, 24 and 48 hours. After each time point the gels were washed twice with DMEM and stored at −80° C. for qPCR analysis.
Total cell RNA was extracted with an RNeasy Mini Kit (Qiagen, Valencia, Calif., USA), by following the manufacturer's protocol. Cells were then homogenized (QIAshredder column, Qiagen), and using an RNeasy column, total RNA was eluted out. The quantity and the quality of the isolated RNA were measured from the absorbance at A260 nm and the ratio of A260/A280 respectively. […] Steady-state mRNA levels were normalized to 18s rRNA and calculated relative to untreated controls by “the relative quantitation using comparative CT” in Multiplex Reactions (PerkinElmer).

[2] = test system: rabbit joint capsule fibroblasts; test: Collagen gel compaction assay; assay type: cell-based; conditions: collagen gel seeded with rabbit joint capsule fibroblasts; final blebbistatin concentration 50 μg/mL, treated 24 hours, imaged up to 48 hours
Method: The effect of blebbistatin on rabbit joint capsule fibroblasts (RJCF) was analyzed using a collagen gel compaction assay. RJCFs between passage 4 and 9 were trypsinized using 0.1% trypsin/EDTA for 5 minutes at 37° C. and then the added trypsin was neutralized using DMEM containing 10% FBS. The cell suspension was centrifuged at 230 g for 5 minutes and resuspended in a desired volume of 10% FBS containing DMEM. The collagen gels loaded with RJCFs were prepared by mixing 10×PBS containing phenol red, 1N NaOH, rat tail collagen-I, and the cell suspension to give a final yield of 1×10^6 cells/mL and 2 mg/mL collagen. 500 μL of the collagen gel mixture was added to each well in a 24 well plate and allowed to gelate for 30 minutes in an incubator. After 30 minutes 500 μL of DMEM containing 10% FBS and 50 μg/mL ascorbic acid was added to each well and incubated for 24 hours. After 24 hours, 2.5 mg of blank and blebbistatin loaded nanoparticles dispersed in 50 μL of DMEM or 50 μL of pure drug dissolved in DMSO (1 mg/mL) or 50 μL DMSO or 50 μL PBS were added to each gel so that the final blebbistatin concentration was 50 μg/mL or a corresponding solvent volume for controls. […] Images were acquired at 0, 0.15, 0.5, 1, 2, 3, 4, 5, 6, 7, 24 and 48 hours, and the amount of compaction was measured with ImageJ.

[3] = test system: rabbit joint capsule fibroblasts; test: Fluorescent microsphere displacement assay with time-lapse imaging; assay type: cell-based
Method: The effect of blebbistatin on cell ability to compact gels was analyzed by monitoring the displacement of fluorescent microspheres. Cell seeded collagen gels were prepared as described above with the addition of a suspension of fluorescent 4 μm microspheres to achieve a concentration of 5 million microspheres/mL. Approximately, 500 μL of this solution were then carefully added around a 6 mm polydimethysiloxane (PDMS) post in a circular PDMS mold with a 20 mm diameter attached to a 35 mm glass bottom Petri dish. This construct was prepared with the purpose of preventing movement of the gel during imaging, after release. Gels were then incubated at 37° C. for 30 minutes to allow polymerization. Once the gels had polymerized, DMEM supplemented with 10% FBS, 1% Penicillin/Streptomyocin, and 0.1% Amphoterecin B was added. After incubation for 24 hours, the gels were treated with either blebbistatin PLGA particles or with blank PLGA particles for 24 hours. Gels were carefully detached from the surrounding PDMS mold and were rinsed twice using DMEM. […] Microsphere displacements were quantified by use of a custom algorithm using digital image correlation to track the movement of individual particles from frame to frame.

Cc1ccc2c(c1)C(=O)C1(O)CCN(c3ccccc3)C1=N2 (centres unmarked) [blebbistatin, Blebbistatin]
stability of the drug after loading into the particles [1]: stable and no significant physical/chemical changes occurred | RhoA, ROCK1 and ROCK2 gene expression (qPCR) (Rho/ROCK pathway): initial increase in RhoA, ROCKI, and ROCK II genes treated with blebbistatin that then decrease to comparable levels as control | gel area after compaction [2]: 87%±1% | fluorescent microsphere displacements (cell force generation) ([3]; cell-seeded collagen gels treated 24 hours, compared with control gels): significantly lower | fibroblast morphology (time-lapse imaging) ([3]; fibroblasts in collagen gels, compared with untreated gels): more spherical fibroblasts
